# According to patent US20060052751A1, “Fast perfusion cell chamber” (priority 2004, published 2006):
# System: GABA transporter isoform GAT4
# Assay: GABA concentration jump, two-electrode voltage clamp in Xenopus laevis oocyte in fast perfusion chamber
# Type: cell-based
# Conditions: oocyte expressing GAT4, N=6
# From the text: The usefulness of the Xenopus oocyte expression system for a variety of electrogenic membrane proteins has driven us to invent a novel rapid perfusion method which allows fast (≦20 ms) solution changes around intact, voltage-clamped Xenopus laevis oocytes (FIGS. 1-4). The present invention permits rapid solution changes to be made about voltage-clamped Xenopus laevis oocytes, while preserving the integrity of the cellular membrane. Defolliculated oocytes (intact vitelline membrane) and conventional two-electrode voltage clamp are used. For fast perfusion, the oocyte is placed in-line with the flow of buffer. The oocyte is supported primarily by an oocyte support base (6) equipped with oocyte support prongs (12), which prevent cellular movement. The current and voltage electrodes (4, 5) (for electrophysiological measurements) provide some support. Buffer flows from above the oocyte in a vertical direction (driven by gravity), at adjustable rates ranging from 1-50 ml/min. Healthy oocytes withstand maximal flow rates due to the chamber's support mechanisms.
# In the absence of oocyte in the chamber, the fluid exchange rate at the recording electrodes is ≈3 ms at maximal buffer flow rates (FIG. 5), the fastest solution change rate ever reported for Xenopus laevis oocytes. The exchange rate with oocyte in place is more difficult to determine due to the highly invaginated surface of the cell (i.e., microvilli), but is estimated to be no more than ≈20 ms. The geometry of the oocyte, microvilli in the oocyte plasma membrane, as well as the oocyte vitelline membrane most likely contribute to this slowing effect. […] A number of features of the system have been examined with oocytes expressing the human γ-aminobutyric acid transporter protein and compared with results obtained from traditional methods (FIGS. 6 and 7). This system permits examination of ligand interaction with electrogenic membrane proteins, a proposition which has heretofore been unattainable. The system also allows for rapid determination of kinetic parameters for drugs of interest.
# FIGS. 6A and 6B show a representative γ-aminobutyric acid (GABA) concentration jump in an oocyte expressing the GABA transporter isoform GAT4. The membrane potential (Vm) was held at −50 mV and the GABA concentration was 0.5 mM. […] This rapid transient induced by a concentration jump represents the fastest ever reported with the two-electrode voltage clamp for any membrane protein expressed in the Xenopus laevis oocyte expression system. […] The steady-state current represents steady-state Na^+/Cl^−/GABA cotransport into the cell. Only the steady-state current is observed in conventional two-electrode voltage clamp records (not shown). The rapid transient represents fast GABA-evoked electrogenic transitions. […] Referring to FIG. 6B, if GABA and Na^+ are simultaneously introduced, the rapid transient phase is absent and the evoked current follows a monoexponential behavior (τ=602±98 ms; N=6). […] Because these events are very fast events, these measurements would not have been possible without the present invention. Thus, our perfusion chamber allows the acquisition of novel information from electrogenic membrane transport proteins expressed in oocytes.
smiles,measurement,setting,value
"NCCCC(=O)O [GABA, γ-aminobutyric acid]",time constant (τ) of monoexponential evoked current,"GABA and Na+ simultaneously introduced, rapid transient phase absent",602 ± 98 ms
same,time constant of decay of rapid transient phase of GABA-evoked current,"Vm -50 mV, GABA 0.5 mM",15 ± 2 ms
same,time constant of mono-exponential decay of GABA-evoked current back to baseline upon rapid removal of GABA,"Vm -50 mV, GABA 0.5 mM",4.0 ± 0.6 s
same,time constant of mono-exponential decay of slow transient phase to steady-state,"Vm -50 mV, GABA 0.5 mM",1.3 ± 0.1 s
same,time-to-peak of rapid transient phase of GABA-evoked inward current,"Vm -50 mV, GABA 0.5 mM",20 ± 5 ms
